# Literature values as cited in patent US20250255845A1, “USE OF INTERLEUKIN (IL)-17A INHIBITOR IN PREPARATION OF MEDICAMENT FOR TREATING INFLAMMATORY DISEASE” (Xiangnan University, priority 2024, published 2025).
# System: endothelial cells
# Conditions: CN101947215A; cited from earlier work
structure (smiles),measurement,value
COc1ccc(-c2cc(=O)c3c(OC)c(OC)c(OC)c(OC)c3o2)cc1OC [nobiletin],proliferation of endothelial cells / angiogenesis,inhibit the proliferation of endothelial cells
COc1ccc(-c2cc(=O)c3c(OC)c(OC)c(OC)cc3o2)cc1OC [sinensetin],proliferation of endothelial cells / angiogenesis,inhibit the proliferation of endothelial cells
